Reference: patent publication US10617715B2, “Methods of treating or preventing biofilm associated infections with free available chlorine free available chlorine water” (Sonoma Pharmaceuticals, Inc., priority 2008, dated 2020)
Positions of bridges follow the written chain, without caps; N, C: chain ends. Non-standard residues stand in square brackets, D forms with d. Residues, ends and D or L forms follow the SMILES beside them. *: point of attachment. Ileψ(thiazoline)Cys = CC[C@H](C)[C@H](N)C1=N[C@H](C(=O)*)CS1; dOrn = NCCC[C@@H](N)C(=O)O

Tested on: exponential phase P. aeruginosa
Assay: Susceptibility testing of exponential phase planktonic P. aeruginosa cells (suspension kill)
Type: cell-based, Pseudomonas aeruginosa
Conditions: bacitracin 33 U/ml, 20 sec.-20 min.

For CC[C@H](C)[C@H](N)C1=N[C@H](C(=O)N[C@@H](CC(C)C)C(=O)N[C@H](CCC(=O)O)C(=O)N[C@H](C(=O)N[C@H]2CCCCNC(=O)[C@H](CC(N)=O)NC(=O)[C@@H](CC(=O)O)NC(=O)[C@H](Cc3cnc[nH]3)NC(=O)[C@@H](Cc3ccccc3)NC(=O)[C@H]([C@@H](C)CC)NC(=O)[C@@H](CCCN)NC2=O)[C@@H](C)CC)CS1 [bacitracin] ({Ileψ(thiazoline)Cys}-L[dE]IK[dOrn]I[dF]H[dD]N; lactam 4-C), the reduction of viability was “ineffective and did not result in reduction of viability”.
